One assay deals with T1, Progesterone receptor (Homo sapiens, UniProt P06401).
T1 sequence (P06401 whole entry): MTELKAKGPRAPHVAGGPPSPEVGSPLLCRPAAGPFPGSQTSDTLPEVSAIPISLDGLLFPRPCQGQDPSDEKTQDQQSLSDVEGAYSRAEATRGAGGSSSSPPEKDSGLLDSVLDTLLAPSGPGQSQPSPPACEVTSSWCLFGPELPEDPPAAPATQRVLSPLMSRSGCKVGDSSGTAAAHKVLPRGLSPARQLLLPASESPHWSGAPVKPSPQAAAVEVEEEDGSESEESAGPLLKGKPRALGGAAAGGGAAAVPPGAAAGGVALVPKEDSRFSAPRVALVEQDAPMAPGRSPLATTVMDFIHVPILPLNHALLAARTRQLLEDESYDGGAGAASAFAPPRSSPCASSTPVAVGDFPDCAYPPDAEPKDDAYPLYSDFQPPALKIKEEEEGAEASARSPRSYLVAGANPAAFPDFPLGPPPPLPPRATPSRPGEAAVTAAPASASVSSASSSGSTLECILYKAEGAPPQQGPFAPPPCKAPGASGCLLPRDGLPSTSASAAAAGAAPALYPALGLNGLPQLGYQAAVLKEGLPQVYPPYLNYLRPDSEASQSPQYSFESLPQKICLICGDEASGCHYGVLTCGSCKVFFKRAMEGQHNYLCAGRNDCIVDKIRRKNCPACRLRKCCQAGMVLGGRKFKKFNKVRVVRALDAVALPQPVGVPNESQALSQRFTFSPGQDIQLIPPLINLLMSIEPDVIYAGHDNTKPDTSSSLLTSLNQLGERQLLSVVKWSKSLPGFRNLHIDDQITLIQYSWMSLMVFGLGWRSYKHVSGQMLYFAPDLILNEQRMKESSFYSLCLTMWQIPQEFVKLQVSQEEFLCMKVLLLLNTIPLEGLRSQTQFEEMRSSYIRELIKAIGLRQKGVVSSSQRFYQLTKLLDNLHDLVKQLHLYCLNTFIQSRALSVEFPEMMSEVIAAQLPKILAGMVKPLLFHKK

The target in assay [1] is 3',5'-cyclic-AMP phosphodiesterase 4A (Homo sapiens, UniProt P27815). The format is functional.
For assay [2], the target named is Gamma-aminobutyric acid receptor subunit alpha-1 (Rattus norvegicus, UniProt P62813).
The next assay concerns the target Prothrombin (Homo sapiens, UniProt P00734). The class given is functional.
The next assay has as its target T2, Thromboxane A2 receptor (Homo sapiens, UniProt P21731).
T2 sequence (P21731 whole entry): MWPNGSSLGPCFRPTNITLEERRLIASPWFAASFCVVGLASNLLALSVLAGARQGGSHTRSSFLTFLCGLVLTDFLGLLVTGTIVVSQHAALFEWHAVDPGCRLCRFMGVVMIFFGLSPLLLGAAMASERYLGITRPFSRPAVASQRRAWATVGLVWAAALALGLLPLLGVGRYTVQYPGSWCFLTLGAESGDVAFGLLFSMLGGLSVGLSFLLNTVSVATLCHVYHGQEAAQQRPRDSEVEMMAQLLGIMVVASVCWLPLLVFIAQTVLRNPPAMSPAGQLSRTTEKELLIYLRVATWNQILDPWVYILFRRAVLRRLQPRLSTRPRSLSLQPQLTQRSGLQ
The class given is functional, cell-based.

The target of another assay is Histamine H3 receptor (Homo sapiens, UniProt Q9Y5N1).
In another assay the target is T3, Adenosine receptor A1 (Homo sapiens, UniProt P30542).
T3 sequence (P30542 whole entry): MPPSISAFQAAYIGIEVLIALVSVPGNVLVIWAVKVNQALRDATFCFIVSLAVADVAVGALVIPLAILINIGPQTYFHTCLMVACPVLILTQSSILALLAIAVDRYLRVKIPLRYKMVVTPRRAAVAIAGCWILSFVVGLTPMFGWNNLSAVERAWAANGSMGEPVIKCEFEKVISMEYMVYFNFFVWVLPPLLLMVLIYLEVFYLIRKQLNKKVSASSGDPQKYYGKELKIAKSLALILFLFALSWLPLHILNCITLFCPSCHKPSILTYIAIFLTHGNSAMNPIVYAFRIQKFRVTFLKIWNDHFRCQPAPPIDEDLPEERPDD

Assay [3] has as its target Gamma-aminobutyric acid type B receptor subunit 1 (Homo sapiens, UniProt Q9UBS5).
Assay [4] addresses cGMP-inhibited 3',5'-cyclic phosphodiesterase 3A (Homo sapiens, UniProt Q14432). The class given is functional.
A further assay has as its target T4, B1 bradykinin receptor (Homo sapiens, UniProt P46663).
T4 sequence (P46663 whole entry): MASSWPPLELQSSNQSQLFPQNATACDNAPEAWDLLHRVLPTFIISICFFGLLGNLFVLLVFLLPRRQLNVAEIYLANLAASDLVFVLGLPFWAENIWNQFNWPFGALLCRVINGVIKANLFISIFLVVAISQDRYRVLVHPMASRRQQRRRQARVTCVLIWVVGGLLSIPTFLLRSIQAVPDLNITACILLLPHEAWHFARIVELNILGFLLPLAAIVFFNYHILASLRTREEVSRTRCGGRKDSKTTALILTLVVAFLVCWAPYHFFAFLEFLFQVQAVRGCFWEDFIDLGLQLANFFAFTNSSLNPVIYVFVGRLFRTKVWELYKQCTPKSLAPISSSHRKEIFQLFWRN

Assay [5] concerns the target Hydroxycarboxylic acid receptor 2 (Homo sapiens, UniProt Q8TDS4).
In assay [6] the target is T5, Muscarinic acetylcholine receptor M5 (Homo sapiens, UniProt P08912).
T5 sequence (P08912 whole entry): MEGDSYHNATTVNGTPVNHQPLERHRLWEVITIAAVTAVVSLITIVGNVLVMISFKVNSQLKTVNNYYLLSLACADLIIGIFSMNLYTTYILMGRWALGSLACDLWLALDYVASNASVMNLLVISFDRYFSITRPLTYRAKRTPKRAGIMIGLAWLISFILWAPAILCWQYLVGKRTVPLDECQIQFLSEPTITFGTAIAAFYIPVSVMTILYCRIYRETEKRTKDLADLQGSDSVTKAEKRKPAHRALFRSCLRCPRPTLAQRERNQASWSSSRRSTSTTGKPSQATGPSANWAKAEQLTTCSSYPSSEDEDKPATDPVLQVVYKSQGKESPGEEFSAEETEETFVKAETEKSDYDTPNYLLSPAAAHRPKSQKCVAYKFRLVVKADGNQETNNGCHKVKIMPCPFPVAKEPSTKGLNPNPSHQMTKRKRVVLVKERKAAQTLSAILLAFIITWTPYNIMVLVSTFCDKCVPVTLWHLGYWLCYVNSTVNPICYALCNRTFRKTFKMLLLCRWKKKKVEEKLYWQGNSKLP

As usually defined, the AC50 is the midpoint of the concentration-response curve, whichever way the signal moves. Low values mean activity at low concentration, high ones activity only at high concentration.

Bounds are passed on as bounds.
Note: assay procedure not described here.

Chain of Hydroxycarboxylic acid receptor 2 (Q8TDS4 whole entry): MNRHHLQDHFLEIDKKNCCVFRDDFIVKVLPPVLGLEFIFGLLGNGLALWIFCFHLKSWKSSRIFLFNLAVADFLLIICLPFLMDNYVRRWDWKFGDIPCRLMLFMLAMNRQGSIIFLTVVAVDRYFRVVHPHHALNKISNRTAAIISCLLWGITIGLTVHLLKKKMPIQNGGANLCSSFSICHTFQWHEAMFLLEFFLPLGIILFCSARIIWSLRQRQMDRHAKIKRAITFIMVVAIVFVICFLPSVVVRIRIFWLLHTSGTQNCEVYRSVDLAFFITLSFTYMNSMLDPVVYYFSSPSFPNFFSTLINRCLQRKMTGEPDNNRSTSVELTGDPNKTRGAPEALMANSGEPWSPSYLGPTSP
Chain of 3',5'-cyclic-AMP phosphodiesterase 4A (P27815 whole entry): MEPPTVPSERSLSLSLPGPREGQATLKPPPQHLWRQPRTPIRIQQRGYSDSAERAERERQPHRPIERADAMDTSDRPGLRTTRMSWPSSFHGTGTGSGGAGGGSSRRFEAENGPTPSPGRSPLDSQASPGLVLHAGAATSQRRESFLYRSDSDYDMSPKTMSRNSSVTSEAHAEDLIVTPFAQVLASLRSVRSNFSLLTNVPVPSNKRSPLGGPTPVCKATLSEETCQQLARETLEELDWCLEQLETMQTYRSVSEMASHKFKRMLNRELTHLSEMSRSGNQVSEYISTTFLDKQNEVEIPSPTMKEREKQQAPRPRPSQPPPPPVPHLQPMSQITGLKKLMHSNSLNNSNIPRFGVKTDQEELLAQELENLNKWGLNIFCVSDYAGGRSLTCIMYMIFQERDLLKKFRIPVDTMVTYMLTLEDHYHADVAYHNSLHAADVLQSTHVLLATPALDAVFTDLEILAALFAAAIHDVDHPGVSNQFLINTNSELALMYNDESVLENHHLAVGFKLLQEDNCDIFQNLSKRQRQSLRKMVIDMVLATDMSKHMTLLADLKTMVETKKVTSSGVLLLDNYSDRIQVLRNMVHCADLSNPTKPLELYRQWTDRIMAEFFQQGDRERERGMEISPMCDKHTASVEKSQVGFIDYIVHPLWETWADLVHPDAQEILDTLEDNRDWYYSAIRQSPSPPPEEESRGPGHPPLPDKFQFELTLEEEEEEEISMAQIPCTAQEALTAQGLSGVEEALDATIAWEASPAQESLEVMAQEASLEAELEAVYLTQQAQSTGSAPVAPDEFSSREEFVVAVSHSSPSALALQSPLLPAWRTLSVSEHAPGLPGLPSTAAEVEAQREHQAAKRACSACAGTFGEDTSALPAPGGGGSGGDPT
Chain of Gamma-aminobutyric acid type B receptor subunit 1 (Q9UBS5 whole entry): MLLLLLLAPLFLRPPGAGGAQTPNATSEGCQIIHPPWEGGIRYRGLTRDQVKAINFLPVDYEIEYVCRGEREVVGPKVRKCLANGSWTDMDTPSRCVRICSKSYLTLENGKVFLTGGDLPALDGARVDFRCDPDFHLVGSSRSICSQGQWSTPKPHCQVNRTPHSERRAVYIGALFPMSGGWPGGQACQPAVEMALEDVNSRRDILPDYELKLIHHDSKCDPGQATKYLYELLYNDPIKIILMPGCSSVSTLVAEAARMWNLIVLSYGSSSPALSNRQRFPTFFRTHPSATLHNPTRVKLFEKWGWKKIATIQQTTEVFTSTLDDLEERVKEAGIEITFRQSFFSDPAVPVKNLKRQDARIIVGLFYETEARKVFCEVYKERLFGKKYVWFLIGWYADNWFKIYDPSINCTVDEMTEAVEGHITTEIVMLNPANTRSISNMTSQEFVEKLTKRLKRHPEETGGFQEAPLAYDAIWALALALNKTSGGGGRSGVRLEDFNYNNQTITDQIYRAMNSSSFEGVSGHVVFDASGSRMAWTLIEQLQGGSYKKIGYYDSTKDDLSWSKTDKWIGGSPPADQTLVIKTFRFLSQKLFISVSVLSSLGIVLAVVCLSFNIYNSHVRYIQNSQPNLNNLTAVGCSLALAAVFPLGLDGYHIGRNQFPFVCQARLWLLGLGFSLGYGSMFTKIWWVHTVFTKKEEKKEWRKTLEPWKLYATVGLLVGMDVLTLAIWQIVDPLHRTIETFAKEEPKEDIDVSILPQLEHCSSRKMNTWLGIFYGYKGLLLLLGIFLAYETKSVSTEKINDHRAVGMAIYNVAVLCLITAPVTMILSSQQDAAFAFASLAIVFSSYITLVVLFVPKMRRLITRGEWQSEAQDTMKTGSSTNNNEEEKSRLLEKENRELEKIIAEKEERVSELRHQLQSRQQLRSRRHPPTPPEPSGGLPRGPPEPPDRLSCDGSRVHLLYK
Chain of cGMP-inhibited 3',5'-cyclic phosphodiesterase 3A (Q14432 whole entry): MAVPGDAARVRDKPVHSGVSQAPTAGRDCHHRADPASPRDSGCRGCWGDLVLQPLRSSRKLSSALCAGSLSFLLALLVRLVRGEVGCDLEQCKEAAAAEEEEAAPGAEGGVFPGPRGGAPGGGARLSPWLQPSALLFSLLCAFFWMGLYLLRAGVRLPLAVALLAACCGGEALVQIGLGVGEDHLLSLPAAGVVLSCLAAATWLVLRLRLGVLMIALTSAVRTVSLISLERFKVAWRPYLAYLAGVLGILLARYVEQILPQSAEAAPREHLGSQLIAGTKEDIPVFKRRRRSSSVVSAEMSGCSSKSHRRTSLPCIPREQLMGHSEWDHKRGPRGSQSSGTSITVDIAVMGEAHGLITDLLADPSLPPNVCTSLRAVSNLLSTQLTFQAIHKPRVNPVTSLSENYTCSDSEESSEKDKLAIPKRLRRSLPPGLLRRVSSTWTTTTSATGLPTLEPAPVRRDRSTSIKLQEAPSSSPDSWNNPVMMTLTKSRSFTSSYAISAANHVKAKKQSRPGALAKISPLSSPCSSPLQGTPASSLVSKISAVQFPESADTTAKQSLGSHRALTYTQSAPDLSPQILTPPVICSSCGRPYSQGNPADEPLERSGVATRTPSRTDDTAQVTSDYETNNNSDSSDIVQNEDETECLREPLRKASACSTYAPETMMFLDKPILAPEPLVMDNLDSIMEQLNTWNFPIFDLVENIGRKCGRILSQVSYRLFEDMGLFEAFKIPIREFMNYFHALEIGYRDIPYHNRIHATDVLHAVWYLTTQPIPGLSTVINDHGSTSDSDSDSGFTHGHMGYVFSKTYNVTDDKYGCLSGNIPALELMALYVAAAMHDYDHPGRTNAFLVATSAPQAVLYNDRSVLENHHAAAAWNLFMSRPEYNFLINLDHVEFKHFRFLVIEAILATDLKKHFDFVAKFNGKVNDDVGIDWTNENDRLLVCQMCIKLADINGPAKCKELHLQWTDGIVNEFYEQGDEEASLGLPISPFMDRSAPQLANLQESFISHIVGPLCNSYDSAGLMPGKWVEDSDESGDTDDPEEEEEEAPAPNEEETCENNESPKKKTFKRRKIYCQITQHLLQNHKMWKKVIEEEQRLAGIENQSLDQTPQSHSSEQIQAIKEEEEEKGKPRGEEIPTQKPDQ
Chain of Gamma-aminobutyric acid receptor subunit alpha-1 (P62813 whole entry): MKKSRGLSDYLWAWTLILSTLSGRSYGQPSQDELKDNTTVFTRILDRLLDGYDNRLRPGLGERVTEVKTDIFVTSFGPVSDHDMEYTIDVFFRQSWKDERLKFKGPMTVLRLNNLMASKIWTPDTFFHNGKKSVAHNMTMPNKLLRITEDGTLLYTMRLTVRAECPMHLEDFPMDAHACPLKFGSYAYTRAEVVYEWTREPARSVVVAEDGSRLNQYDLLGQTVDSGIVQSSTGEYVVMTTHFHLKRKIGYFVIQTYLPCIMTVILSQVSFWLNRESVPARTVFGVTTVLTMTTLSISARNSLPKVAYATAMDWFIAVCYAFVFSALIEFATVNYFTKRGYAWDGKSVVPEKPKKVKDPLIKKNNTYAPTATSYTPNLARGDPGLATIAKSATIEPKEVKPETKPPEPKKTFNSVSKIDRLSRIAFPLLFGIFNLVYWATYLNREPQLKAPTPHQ
Chain of Histamine H3 receptor (Q9Y5N1 whole entry): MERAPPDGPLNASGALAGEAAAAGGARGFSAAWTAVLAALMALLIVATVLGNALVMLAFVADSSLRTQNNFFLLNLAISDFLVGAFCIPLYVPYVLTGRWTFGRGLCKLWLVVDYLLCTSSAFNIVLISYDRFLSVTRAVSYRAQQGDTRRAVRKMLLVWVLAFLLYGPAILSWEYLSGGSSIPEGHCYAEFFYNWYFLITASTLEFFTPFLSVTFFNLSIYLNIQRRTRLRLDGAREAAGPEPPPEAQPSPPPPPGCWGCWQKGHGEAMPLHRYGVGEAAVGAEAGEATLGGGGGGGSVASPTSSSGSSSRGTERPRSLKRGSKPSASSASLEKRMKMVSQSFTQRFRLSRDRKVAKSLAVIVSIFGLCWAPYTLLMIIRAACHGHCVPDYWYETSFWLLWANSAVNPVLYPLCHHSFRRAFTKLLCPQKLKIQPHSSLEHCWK

On to `NCCCC(O)(P(=O)(O)O)P(=O)(O)O` [ALENDRONIC ACID], for which the AC50 (at Progesterone receptor; in [1]; in assay [2]; on Prothrombin; at Thromboxane A2 receptor; on Histamine H3 receptor) was greater than 30 µM throughout. The AC50 on Adenosine receptor A1 was greater than 30 µM; in assay [3], greater than 10 µM; in assay [4], greater than 30 µM; at B1 bradykinin receptor it was greater than 30 µM.

Consider `CCCC(C)(COC(N)=O)COC(=O)NC(C)C` (stereo not given) [CARISOPRODOL], for which the figures for the AC50 (in [5]; at B1 bradykinin receptor) were greater than 10 µM and greater than 30 µM, respectively.

Regarding `N[C@H](Cc1cc(I)c(Oc2cc(I)c(O)c(I)c2)c(I)c1)C(=O)O` [DEXTROTHYROXINE], the AC50 on B1 bradykinin receptor is greater than 30 µM.

As for `CC(=O)OCC(CCn1cnc2cnc(N)nc21)COC(C)=O` [FAMCICLOVIR], the figures for the AC50 (in assay [5]; at B1 bradykinin receptor) were greater than 10 µM and greater than 30 µM, respectively.

Consider `O=C(O)c1ccccc1Nc1cccc(C(F)(F)F)c1` [FLUFENAMIC ACID], for which, at B1 bradykinin receptor, the AC50 is greater than 30 µM.

Take `COC1=C(OC)C(=O)C(CCCCCCCCCCO)=C(C)C1=O` [IDEBENONE]: the results for the concentration at half-maximal activity (AC50) (in assay [3]; in assay [6]; at B1 bradykinin receptor) were greater than 10 µM, greater than 10 µM and greater than 30 µM, respectively.

As to `O=C1CN=C(c2ccccc2)c2cc(Cl)ccc2N1` [NORDAZEPAM], the values for the AC50 (in assay [3]; in assay [6]; on B1 bradykinin receptor) were greater than 10 µM, greater than 10 µM and greater than 30 µM, respectively.

Turning to `CC(CCc1ccccc1)NC(C)C(O)c1ccc(O)cc1` (stereo not given) [NYLIDRIN], the AC50 in assay [3] is greater than 10 µM; in assay [6], greater than 10 µM; at B1 bradykinin receptor it was greater than 30 µM.

In the case of `O=C1Nc2ccc(Cl)cc2C(c2ccccc2)=NC1O` (stereo not given) [OXAZEPAM], the AC50 in [3] is greater than 10 µM; in assay [6], greater than 10 µM; at B1 bradykinin receptor it was greater than 30 µM.

Consider `C[n+]1ccccc1/C=N/O` [PRALIDOXIME], for which the AC50 (on Progesterone receptor; in assay [1]; in assay [2]; at Prothrombin; at Thromboxane A2 receptor; on Histamine H3 receptor) was greater than 30 µM throughout. Further, the AC50 (at Adenosine receptor A1; in assay [4]) was greater than 30 µM in each case.

Consider `CC(C)CC(N(C)C)C1(c2ccc(Cl)cc2)CCC1` (stereo not given) [SIBUTRAMINE], for which the AC50 was greater than 10 µM in assay [5], greater than 10 µM in assay [3] and greater than 30 µM at B1 bradykinin receptor.

On to `[H]/N=C(/N)N[C@H]1[C@H](O)[C@@H](O)[C@H](O[C@@H]2O[C@@H](C)[C@](O)(C=O)[C@H]2O[C@@H]2O[C@@H](CO)[C@H](O)[C@@H](O)[C@@H]2NC)[C@@H](N/C(N)=N\[H])[C@@H]1O` [STREPTOMYCIN], for which the AC50 at B1 bradykinin receptor was greater than 30 µM.

For `N#C[C@@H]1CCCN1C(=O)CNC12CC3CC(CC(O)(C3)C1)C2` [VILDAGLIPTIN], the AC50 in assay [3] and in [6] was greater than 10 µM throughout.

COLISTIN: the AC50 is greater than 30 µM on Progesterone receptor; 12 µM in assay [1]; greater than 30 µM in assay [2]; greater than 30 µM on Prothrombin; greater than 30 µM on Thromboxane A2 receptor; greater than 30 µM at Histamine H3 receptor. The concentration at half-maximal activity (AC50) (on Adenosine receptor A1; in assay [4]) was greater than 30 µM throughout.

Values taken from ChEMBL document CHEMBL5291721, “A preclinical secondary pharmacology resource illuminates target-adverse drug reaction associations of marketed drugs” (Nat Commun, 2023).
